The results in this text go back to US11213530B2, “Gallium in the treatment of coronavirus disease” (priority 2020, dated 2022).

pEC50: −log10 of the molar value.

The assay relates to SARS-CoV-2 (WIV04). Format: cell-based. As to conditions: Vero-E6 cells.

With `Cc1occc(=O)c1[O-].Cc1occc(=O)c1[O-].Cc1occc(=O)c1[O-].[Ga+3]` [gallium maltolate], the “in vitro antiviral activity” value (MOI 0.005, 0.1 μM to 100 μM, 24 hours, FIG. 1) is “pronounced, dose-dependent in vitro antiviral activity”. Also, where the note is “MOI 0.005, viral RNA in culture media by qRT-PCR at 24 hours after treatment, read-out: concentration that inhibited viral replication by 50% (EC50)”, the pEC50 was approximately 4.85.
